Source: patent publication US20240368142A1, “KCNT1 INHIBITORS AND METHODS OF USE” (Praxis Precision Medicines, Inc., priority 2021, published 2024)

Biological target: T1, KCNT1 (KNa1.1, Slack) (Homo sapiens, UniProt Q5JUK3)
T1 construct: expressed in transfected cells; host or cells: HEK-TREX (tetracycline inducible cell line)
T1 sequence (Q5JUK3 1-1230): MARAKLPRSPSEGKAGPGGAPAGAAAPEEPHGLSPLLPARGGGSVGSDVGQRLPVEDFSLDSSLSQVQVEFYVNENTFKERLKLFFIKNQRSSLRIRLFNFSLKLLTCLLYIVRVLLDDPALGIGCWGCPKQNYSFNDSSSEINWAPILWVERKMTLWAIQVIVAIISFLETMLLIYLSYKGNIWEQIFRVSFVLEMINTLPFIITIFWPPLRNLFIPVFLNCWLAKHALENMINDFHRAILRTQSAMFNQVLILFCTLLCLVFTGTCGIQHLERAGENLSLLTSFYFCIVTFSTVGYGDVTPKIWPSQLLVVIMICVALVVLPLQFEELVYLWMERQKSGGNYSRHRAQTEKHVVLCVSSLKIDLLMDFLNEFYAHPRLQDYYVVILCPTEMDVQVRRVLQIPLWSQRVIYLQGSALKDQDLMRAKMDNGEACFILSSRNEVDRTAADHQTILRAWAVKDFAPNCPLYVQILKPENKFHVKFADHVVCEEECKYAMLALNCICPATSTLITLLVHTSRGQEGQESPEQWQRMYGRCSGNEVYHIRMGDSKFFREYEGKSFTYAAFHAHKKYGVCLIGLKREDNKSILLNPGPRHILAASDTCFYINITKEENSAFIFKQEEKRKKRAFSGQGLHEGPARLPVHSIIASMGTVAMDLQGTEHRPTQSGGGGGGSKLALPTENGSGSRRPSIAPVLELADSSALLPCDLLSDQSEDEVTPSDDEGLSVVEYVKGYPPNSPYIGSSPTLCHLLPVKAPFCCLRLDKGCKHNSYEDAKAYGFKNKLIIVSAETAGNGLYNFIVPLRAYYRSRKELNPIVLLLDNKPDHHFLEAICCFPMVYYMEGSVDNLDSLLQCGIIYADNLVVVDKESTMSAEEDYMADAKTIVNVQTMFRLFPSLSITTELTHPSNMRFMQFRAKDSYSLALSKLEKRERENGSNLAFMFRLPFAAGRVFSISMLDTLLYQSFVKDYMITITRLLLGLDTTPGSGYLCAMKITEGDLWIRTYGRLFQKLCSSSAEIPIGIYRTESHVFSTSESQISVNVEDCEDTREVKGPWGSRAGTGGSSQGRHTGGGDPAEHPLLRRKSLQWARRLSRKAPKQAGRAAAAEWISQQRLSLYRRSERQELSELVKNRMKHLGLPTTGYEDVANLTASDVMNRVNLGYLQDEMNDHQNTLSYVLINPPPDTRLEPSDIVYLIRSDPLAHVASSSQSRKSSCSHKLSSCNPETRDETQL
Assay: KCNT1-WT-Basal-Patch Clamp Assay
Format: cell-based
Details: tetracycline inducible cell line (HEK-TREX), SyncroPatch 384PE automated patch clamp, perforated patch, holding -80 mV with step to 0 mV, room temperature
Experimental: KCNT1-WT-Basal-Patch Clamp Assay
Inhibition of KCNT1 (KNa1.1, Slack) was evaluated using a tetracycline inducible cell line (HEK-TREX). Currents were recorded using the SyncroPatch 384PE automated, patch clamp system. Pulse generation and data collection were performed with PatchController384 V1.3.0 and DataController384 V1.2.1 (Nanion Technologies). The access resistance and apparent membrane capacitance were estimated using built-in protocols. Current were recorded in perforated patch mode (10 μM escin) from a population of cells. The cells were lifted, triturated, and resuspended at 800,000 cells/ml. The cells were allowed to recover in the cell hotel prior to experimentation. Currents were recorded at room temperature. The external solution contained the following (in mM): NaCl 105, NMDG 40, KCl 4, MgCl2 1, CaCl2 5 and HEPES 10 (pH=7.4, Osmolarity ˜300 mOsm). The extracellular solution was used as the wash, reference and compound delivery solution. The internal solution contained the following (in mM): NaCl 70, KF 70, KCl 10, EGTA 5, HEPES 5 and Escin 0.01 (pH=7.2, Osmolarity ˜295 mOsm). Escin is made at a 5 mM stock in water, aliquoted, and stored at −20° C. The compound plate was created at 2× concentrated in the extracellular solution. The compound was diluted to 1:2 when added to the recording well. The amount of DMSO in the extracellular solution was held constant at the level used for the highest tested concentration. A holding potential of −80 mV with a 100 ms step to 0 mV was used. Mean current was measured during the step to 0 mV. […] The average mean current from 3 sweeps was calculated and the % inhibition of each compound was calculated. The % Inhibition as a function of the compound concentration was fit with a Hill equation to derive IC50, slope, min and max parameters. If KCNT1 inhibition was less than 50% at the highest tested concentration or if an IC50 could not be calculated, then a percent inhibition was reported in place of the IC50. In this table, “A” indicates IC50 of less than or equal to 1 μM; “B” indicates inhibition of between 1 μM to 20 μM; and “C” indicates inhibition of greater than or equal to 20 μM.

| SMILES | IC50 [nM] |
| --- | --- |
| C[C@@H](C(=O)N1CCCCC1)c1nc(-c2ccnc(C3CC3)c2)no1 (single isomer, unassigned) [Compound 6] | 1000 to 20000 |
| CC(C(=O)N[C@H](C)c1ccccc1)c1nc(-c2ccnc(C3CC3)c2)no1 (stereo partly drawn) [Compound 12, 2-(3-(2-cyclopropylpyridin-4-yl)-1,2,4-oxadiazol-5-yl)-N—((R)-1-phenylethyl)propanamide] | ≤ 1000 |
| C[C@@H](C(=O)Nc1ccccc1)c1nc(-c2ccnc(C3CC3)c2)no1 (single isomer, unassigned) [Compound 8] | ≤ 1000 |
| CC(C(=O)N(C)c1ccccc1)c1nc(-c2ccnc(C3CC3)c2)no1 (stereo not drawn) [Compound 10, -[3-(2-cyclopropyl-4-pyridyl)-1,2,4-oxadiazol-5-yl]-N-methyl-N-phenyl-propanamide] | 1000 to 20000 |
| CC(C(=O)N1CCCCC1)c1nc(-c2ccnc(C3CC3)c2)no1 (stereo not drawn) [Compound 5, 2-(3-(2-cyclopropylpyridin-4-yl)-1,2,4-oxadiazol-5-yl)-1-(piperidin-1-yl)propan-1-one] | 1000 to 20000 |
| C[C@H](C(=O)N1CCCCC1)c1nc(-c2ccnc(C3CC3)c2)no1 (single isomer, unassigned) [Compound 7] | ≥ 20000 |
| C[C@@H](C(=O)NC1CCCCC1)c1nc(-c2ccnc(C3CC3)c2)no1 (single isomer, unassigned) [Compound 3] | ≤ 1000 |
| C[C@H](C(=O)Nc1ccccc1)c1nc(-c2ccnc(C3CC3)c2)no1 (single isomer, unassigned) [Compound 9] | ≤ 1000 |
| CC(C(=O)NCc1ccccc1)c1nc(-c2ccnc(C3CC3)c2)no1 (stereo not drawn) [Compound 2, N-benzyl-2-(3-(2-cyclopropylpyridin-4-yl)-1,2,4-oxadiazol-5-yl)propanamide] | ≤ 1000 |
| CC(C(=O)Nc1ccccc1)c1nc(-c2ccnc(C3CC3)c2)no1 (stereo not drawn) [Compound 1, 2-[3-(2-cyclopropyl-4-pyridyl)-1,2,4-oxadiazol-5-yl]-N-phenyl-propanamide] | ≤ 1000 |
| C[C@H](C(=O)NC1CCCCC1)c1nc(-c2ccnc(C3CC3)c2)no1 (single isomer, unassigned) [Compound 4] | ≤ 1000 |
| CC(C(=O)N[C@@H](C)c1ccccc1)c1nc(-c2ccnc(C3CC3)c2)no1 (stereo partly drawn) [Compound 11, 2-(3-(2-cyclopropylpyridin-4-yl)-1,2,4-oxadiazol-5-yl)-N—((S)-1-phenylethyl)propanamide] | ≤ 1000 |
